From patent US11753363B2, “13-oxidized ingenol derivative and use thereof” (Tianjin Pharmaceutical Da Ren Tang Group Corp., Ltd. …, priority 2017, dated 2023)
≈ marks a conversion by molar mass, not a printed value.

How the values were obtained:
[1] = test system: SMMC-7721 (human liver cancer cells); test: Inhibition of proliferation of tumor cell lines (MTT), SMMC-7721; assay type: cell-based; conditions: Homo sapiens, SMMC-7721, 72 h, read-out: IC50 value of compound for inhibition of proliferation of tumor cell lines, SMMC-7721
Description: (§1) In this example, the inhibitory activity of compounds of the present invention against proliferation of seven human tumor cell lines and mouse B16-F10 melanoma cells was tested in vitro, and the IC50 value (50% inhibitory concentration) of compounds against each tumor cell line was calculated.
(§2) The seven human tumor cell lines are: MCF-7 (human breast cancer cells), LOVO (human colon cancer cells), A549 (human lung cancer cells), BGC-823 (human gastric cancer cells), SMMC-7721 (human liver cancer cells), K562 (human leukemia cells), and HeLa (human cervical cancer cells).
(§3) IC50 values of the compounds for A549, BGC-823, LOVO, MCF-7, SMMC-7721, HeLa, and B16-F10 cells were tested. The above cells were routinely cultured in 1640 nutrient solution containing 10% calf serum, with passage for 1 time every 2 days, and the cells in logarithmic growth phase were taken for experiments. After the A549, BGC-823, LOVO, MCF-7, SMMC-7721, HeLa and B16-F10 cells in logarithmic growth phase were subjected to 0.25% trypsin digestion, they were blown into a single cell suspension, and then the cell concentration was adjusted to about 1×10^5·mL^−1 using RPMI 1640 solution containing 10% calf serum. The cells were seeded in a 96-well culture plate at 100 μL per well, and cultured for 24 hours until the cells were attached. K562 cells were taken and centrifuged and diluted into 2×10^5·mL^−1 single cell suspension with RPMI 1640 solution containing 10% calf serum, and inoculated into a 96-well culture plate at 100 μL per well.
(§4) 100 μL of sample solution with different concentrations to be tested were added to the above 96-well plate, each concentration was added to 4 wells in parallel, and the cell control group was added with an equal volume of RPMI 1640 medium containing 10% calf serum to make a reaction volume of 200 μL. After incubating in an incubator at 37° C., 5% CO2 for 72 h, 10 μL of 5 mg·mL^−1 MTT solution was added to each well, and incubated at 37° C. for 4 h. The supernatant was carefully aspirated, 180 μL of DMSO was added to each well followed by shaking, and the absorbance (OD) value was measured at 570 nm on the microplate reader. The inhibition rate was calculated, and regression equation was established with the logarithmic value of the sample concentration and the inhibition rate (IR) to find the IC50 value of the compound against the cells to be tested. IR (%)=(1−OD value of the experimental group/OD value of the cell control group)×100%

[2] = test system: neutrophilic granulocytes; test: Neutrophil oxidative burst (luminol chemiluminescence); assay type: cell-based; conditions: Neutrophil, rat neutrophils, (Csample−Ccontrol)/Ccontrol×100%, read-out: Efficiency of compounds in stimulating neutrophil oxidative burst; for activation at 0.1 µg/mL: 0.1 μg/mL; for activation at 3 µg/mL: 3 μg/mL
Description: This example investigated the effect of compound on neutrophil oxidative burst and calculated the efficiency of each compound in stimulating neutrophil oxidative burst.
Blood was taken from the abdominal aorta of rat. The neutrophilic granulocytes were isolated by the operational procedure of the rat peripheral blood neutrophil isolation kit. The neutrophilic granulocytes were re-suspended by Hanks, and were plated in a 96-well white plate at 1×10^5 cells/well, 80 μL/well; 1 mM of Luminol was added at 10 μL/well; 10 μL of the sample was added to each well, and the degree of oxidative burst was evaluated by chemiluminescence. Calculation formula of Efficiency: Efficiency (%)=(Csample−Ccontrol)/Ccontrol×100%

[3] = test system: mouse B16-F10 melanoma cells; test: Inhibition of proliferation of tumor cell lines (MTT), B16-F10; assay type: cell-based; conditions: Mus musculus, B16-F10, 72 h, read-out: IC50 value of compound for inhibition of proliferation of tumor cell lines, B16-F10
Description: as §1, §3, §4

[4] = test system: release of IL-8 by human keratinocytes (HaCaT); test: Release of IL-8 by human keratinocytes (HaCaT), IL-8 Elisa; assay type: cell-based; conditions: Homo sapiens, HaCaT, 24 h, (Csample−Ccontrol)/Ccontrol×100%, read-out: Efficiency of compound in stimulating the release of IL-8 by HaCaT cells; for activation at 0.1 µg/mL: 0.1 μg/mL; for activation at 1 µg/mL: 1 μg/mL
Description: This Example investigated the effect of compound on release of IL-8 by human keratinocytes (HaCaT) and calculated the efficiency of each compound in stimulating the release of IL-8 by human keratinocytes (HaCaT).
Hacat cells were cultured in MEM+10% FBS under the conditions of 37° C., 5% CO2, and when the cells reached 80-95% fusion, they were inoculated into a 96-well culture plate (1×10^4 cells/well) at 100 μL/well, and incubated for 18-24 h. The supernatant was discarded and the cells were incubated for 3-6 h in 1% FBS medium. Different concentrations of the sample solution of compound to be tested were added to each well, and the cell control group was added with an equal volume of 1% FBS medium at 10 μL/well, and incubated for 24 h. The supernatant was taken and tested according to the operation sequence of the IL-8 Elisa kit. Calculation formula of Efficiency: Efficiency (%)=(Csample−Ccontrol)/Ccontrol×100%

B16-F0 mouse melanoma = test: Antitumor activity in B16-F0 mouse melanoma model; assay type: in vivo; conditions: female C57BL/6J mice, intradermal B16 tumor, skin administration once per day for 3 days, 20 μL/mouse, tumor weight on day 19
Description: This Example investigated the antitumor activity of compounds in B16-F0 mouse melanoma model.
In vitro passage of B16-F0 tumor source was inoculated subcutaneously into female C57BL/6J mice, and passage was carried out after tumor formation. After passage, the subcutaneous tumor tissue of the tumor-bearing mice was taken and ground with 3 times amount of physiological saline to form a tumor cell suspension, and 0.2 mL/mouse of which was inoculated subcutaneously into the axilla of forelimb of mice, which were used as the tumor-source mice. Female C57BL/6J mice were taken and their hair in an area of 4 cm^2 on the neck and back was shaven. After anesthesia with diethyl ether, B16 tumor source was inoculated intradermally at 0.05 mL/mouse. After 3 days of inoculation, the skin was continuously administered for 3 days, once per day, 20 μL/mouse each time, and in the test, a solvent group as a negative control group was included. On the 19th day of the experiment, the experiment was terminated. After the mice were euthanized, the intradermally transplanted tumors were completely separated and excised, and the tumor was weighed to calculate the tumor inhibition rate. Calculation formula of tumor inhibition rate: tumor inhibition rate (%)=(Wmodel group−Wadministration group)/Wmodel group×100%
The tumor growths of the experimental group and the solvent control group were compared to evaluate the antitumor activity of each compound, and the compound with P<0.05 was considered to be effective.

[5] = test system: K562 (human leukemia cells); test: Inhibition of proliferation of tumor cell lines (MTT), K562; assay type: cell-based; conditions: Homo sapiens, K562, 72 h, read-out: IC50 value of compound for inhibition of proliferation of tumor cell lines, K562
Description: as §1, §2, §3, §4

[6] = test system: MCF-7 (human breast cancer cells); test: Inhibition of proliferation of tumor cell lines (MTT), MCF-7; assay type: cell-based; conditions: Homo sapiens, MCF7, MCF-7, 72 h, read-out: IC50 value of compound for inhibition of proliferation of tumor cell lines, MCF-7
Description: as §1, §2, §3, §4

[7] = test system: HeLa (human cervical cancer cells); test: Inhibition of proliferation of tumor cell lines (MTT), HeLa; assay type: cell-based; conditions: Homo sapiens, 72 h, read-out: IC50 value of compound for inhibition of proliferation of tumor cell lines, HeLA
Description: as §1, §2, §3, §4

[8] = test system: LOVO (human colon cancer cells); test: Inhibition of proliferation of tumor cell lines (MTT), LOVO; assay type: cell-based; conditions: Homo sapiens, 72 h, read-out: IC50 value of compound for inhibition of proliferation of tumor cell lines, LOVO
Description: as §1, §2, §3, §4

[9] = test system: BGC-823 (human gastric cancer cells); test: Inhibition of proliferation of tumor cell lines (MTT), BGC-823; assay type: cell-based; conditions: Homo sapiens, BGC-823, 72 h, read-out: IC50 value of compound for inhibition of proliferation of tumor cell lines, BGC-823
Description: as §1, §2, §3, §4

[10] = test system: A549 (human lung cancer cells); test: Inhibition of proliferation of tumor cell lines (MTT), A549; assay type: cell-based; conditions: Homo sapiens, A549, 72 h, read-out: IC50 value of compound for inhibition of proliferation of tumor cell lines, A549
Description: as §1, §2, §3, §4

SMILES | IC50 [1] | activation at 0.1 µg/mL [2] | IC50 [3] | activation at 0.1 µg/mL [4] | Tumor-inhibition rate (B16-F0 mouse melanoma) | IC50 [5] | IC50 [6] | IC50 [7] | IC50 [8] | IC50 [9] | IC50 [10] | activation at 3 µg/mL [2] | activation at 1 µg/mL [4]
C/C=C(/C)C(=O)O[C@H]1C(C)=C[C@]23C(=O)[C@@H](C=C(CO)[C@@H](O)[C@]12O)[C@@H]1C(C)(C)[C@]1(OC(=O)CCCCCCC)C[C@H]3C [Compound 18, 3-O-angeloyl-13-O-octanoyl-ingenol] | 12.4 µg/mL (≈ 21.7 µM) | 69.1% | 8.43 µg/mL (≈ 14.7 µM) | 29.8% | 59.0% | 1.41 µg/mL (≈ 2.46 µM) | 11.7 µg/mL (≈ 20.4 µM) | 12.2 µg/mL (≈ 21.3 µM) | 8.47 µg/mL (≈ 14.8 µM) | 10.1 µg/mL (≈ 17.6 µM) | 13.6 µg/mL (≈ 23.7 µM) | – | –
C/C=C(/C)C(=O)O[C@H]1C(C)=C[C@]23C(=O)[C@@H](C=C(CO)[C@@H](O)[C@]12O)[C@@H]1C(C)(C)[C@]1(OC(=O)CCC)C[C@H]3C [Compound 16, 3-O-angeloyl-13-O-butanoyl-ingenol] | 43.5 µg/mL (≈ 84.2 µM) | – | 17 µg/mL (≈ 32.9 µM) | 84.6% | 89.6% | 4.21 µg/mL (≈ 8.15 µM) | 38.4 µg/mL (≈ 74.3 µM) | 61.1 µg/mL (≈ 118 µM) | 36.9 µg/mL (≈ 71.4 µM) | 44.1 µg/mL (≈ 85.4 µM) | 46.8 µg/mL (≈ 90.6 µM) | 80.1% | –
C/C=C(/C)C(=O)O[C@H]1C(C)=C[C@]23C(=O)[C@@H](C=C(CO)[C@@H](O)[C@]12O)[C@@H]1C(C)(C)[C@]1(OC(=O)CCCCCCCCC)C[C@H]3C [Compound 19, 3-O-angeloyl-13-O-decanoyl-ingenol] | 13.4 µg/mL (≈ 22.3 µM) | 43.5% | 9.85 µg/mL (≈ 16.4 µM) | 144% | 65.7% | 2.13 µg/mL (≈ 3.55 µM) | 9.3 µg/mL (≈ 15.5 µM) | 8.58 µg/mL (≈ 14.3 µM) | 7.9 µg/mL (≈ 13.1 µM) | 14 µg/mL (≈ 23.3 µM) | 12.6 µg/mL (≈ 21 µM) | – | –
C/C=C(/C)C(=O)O[C@H]1C(C)=C[C@]23C(=O)[C@@H](C=C(CO)[C@@H](O)[C@]12O)[C@@H]1C(C)(C)[C@]1(OC(=O)CCCCC)C[C@H]3C [Compound 17, 3-O-angeloyl-13-O-hexanoyl-ingenol] | 21.1 µg/mL (≈ 38.7 µM) | 82.1% | 6.5 µg/mL (≈ 11.9 µM) | 121% | 68.8% | 2.93 µg/mL (≈ 5.38 µM) | 18.6 µg/mL (≈ 34.1 µM) | 18.6 µg/mL (≈ 34.1 µM) | 16.9 µg/mL (≈ 31 µM) | 21.7 µg/mL (≈ 39.8 µM) | 21.7 µg/mL (≈ 39.8 µM) | – | –
CCCCCCCCCCCC(=O)O[C@@]12C[C@@H](C)[C@]34C=C(C)[C@H](O)[C@@]3(O)[C@H](O)C(COC(C)=O)=C[C@H](C4=O)[C@@H]1C2(C)C [Compound 12, 20-O-acetyl-13-O-dodecanoyl-ingenol] | 12.7 µg/mL (≈ 21.6 µM) | – | 14 µg/mL (≈ 23.8 µM) | – | 40.7% | 0.06 µg/mL (≈ 0.102 µM) | 12.7 µg/mL (≈ 21.6 µM) | 32.3 µg/mL (≈ 54.9 µM) | 6.71 µg/mL (≈ 11.4 µM) | 10.3 µg/mL (≈ 17.5 µM) | 16 µg/mL (≈ 27.2 µM) | 88.3% | 37%
C/C=C(/C)C(=O)O[C@H]1C(C)=C[C@]23C(=O)[C@@H](C=C(CO)[C@@H](O)[C@]12O)[C@@H]1C(C)(C)[C@]1(OC(C)=O)C[C@H]3C [Compound 8, 3-O-angeloyl-13-O-acetyl-ingenol] | 96.6 µg/mL (≈ 198 µM) | – | – | – | 90.3% | 0.0065 µg/mL (≈ 0.0133 µM) | > 50 µg/mL | > 100 µg/mL | > 50 µg/mL | > 100 µg/mL | > 50 µg/mL | – | 38.3%
CCCCCCCCCCCC(=O)O[C@@]12C[C@@H](C)[C@]34C=C(C)[C@H](OC(=O)c5c(CC)noc5CC)[C@@]3(O)[C@H](O)C(CO)=C[C@H](C4=O)[C@@H]1C2(C)C [Compound 22, 3-O-(3,5-diethylisoxazolyl-4-formyl)-13-O-dodecanoyl-ingenol] | 20.1 µg/mL (≈ 28.8 µM) | 124% | 2.96 µg/mL (≈ 4.24 µM) | 144% | 39.5% | 1.14 µg/mL (≈ 1.63 µM) | 10.9 µg/mL (≈ 15.6 µM) | 9.59 µg/mL (≈ 13.7 µM) | 11 µg/mL (≈ 15.8 µM) | 11.3 µg/mL (≈ 16.2 µM) | 18.3 µg/mL (≈ 26.2 µM) | – | –
CCCCCCCCCCCC(=O)O[C@@]12C[C@@H](C)[C@]34C=C(C)[C@H](O)[C@@]3(O)[C@H](O)C(COC(=O)CCC)=C[C@H](C4=O)[C@@H]1C2(C)C [Compound 13, 20-O-n-butanoyl-13-O-dodecanoyl-ingenol] | 12.5 µg/mL (≈ 20.3 µM) | – | 30.5 µg/mL (≈ 49.4 µM) | 30.3% | – | 0.07 µg/mL (≈ 0.113 µM) | 18 µg/mL (≈ 29.2 µM) | 24.2 µg/mL (≈ 39.2 µM) | 6.93 µg/mL (≈ 11.2 µM) | 12.4 µg/mL (≈ 20.1 µM) | 17.2 µg/mL (≈ 27.9 µM) | 62.4% | –
